Target: T1, D1R (Homo sapiens, UniProt P21728)
T1 construct: gene DRD1; cDNA from Missouri S&T cDNA Resource Center, transiently expressed in HEK293T/17 with Golf (Gαolf, Venus-Gβ2γ7), Ric-8B and masGRK3ct-Nluc BRET reporter
Experiment: BRET G protein activation assay (masGRK3ct-Nluc / Venus-Gβ[…]γ[…]), HEK293T/[…]
Assay type: cell-based
Settings: antagonist, […], against […] dopamine; Golf co-expressed

T1 sequence (P21728 whole entry): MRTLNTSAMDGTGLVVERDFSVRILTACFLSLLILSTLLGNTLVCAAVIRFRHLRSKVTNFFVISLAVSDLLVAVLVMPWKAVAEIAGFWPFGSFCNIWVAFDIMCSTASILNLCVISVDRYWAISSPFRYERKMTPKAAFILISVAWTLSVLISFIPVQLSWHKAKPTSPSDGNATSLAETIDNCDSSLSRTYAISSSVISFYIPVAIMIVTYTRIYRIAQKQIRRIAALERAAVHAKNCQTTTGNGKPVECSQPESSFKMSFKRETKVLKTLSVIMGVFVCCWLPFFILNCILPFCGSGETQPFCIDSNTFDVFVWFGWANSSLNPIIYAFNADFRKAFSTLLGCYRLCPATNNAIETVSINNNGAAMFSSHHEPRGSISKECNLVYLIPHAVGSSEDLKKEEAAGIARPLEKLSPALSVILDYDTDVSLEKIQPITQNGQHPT

CN1CCc2cc(Cl)c(O)cc2[C@H]2c3ccccc3CC[C@@H]21 [SCH39166]
BRET G protein activation assay (masGRK3ct-Nluc / Venus-Gβ2γ7), HEK293T/17: application of an antagonist SCH39166 facilitates complex re-association and quenching of the BRET response

Reference: paper PMC4728126, “Stable G protein-effector complexes in striatal neurons: mechanism of assembly and role in neurotransmitter signaling” (eLife, 2015)
